Laboratory results as given in patent US20110008394A1, “ACTIVE SUBSTANCES THAT INCREASE THE ACTIVATION THRESHOLD OF IMMUNE CELLS” (BASF Beauty Care Solutions France S.A.S., priority 2008, published 2011).

Experiments:
immature LCs/DDCs = assay: Cell viability (cytotoxicity) test, 7-AAD dye, flow cytometry; format: cell-based; conditions: 24 hour treatment
Description: The active principles have a cytotoxic effect when the cell viability is less than 75% after treatment with the said active agents.
The LCs/DDCs, as described in Example 1 and step 3, are inoculated into P96-well plates, at a rate of 200 000 cells/well, and in the culture medium described in Example 3. The treatment of the cells with the active principles is described in Example 3.
After treatment with the said active principles, the cells are incubated with 5 μl of dye 7-AAD (7-aminoactinomycin D) per well. After incubation for 5 minutes, the cells are analysed by flow cytometry.
The cell viability is expressed as a percentage of viable cells or negative 7-AAD, the dye not penetrating the membranes that are impermeable. This analysis technique also makes it possible to visualize the cells positively marked with 7-AAD, i.e. the cells that have undergone a cytotoxic effect via the active agent.
The negative controls are either the culture medium alone, or the culture medium containing the solvent used during the process for extracting the extracts tested at the concentration equivalent to that of the active agents tested. The reference positive control used in order to induce a mortality of the LCs/DDCs is camptothecin at a concentration of 4 μM final.

[1] = tested on: CD86 on immature LCs/DDCs; assay: Protein expression of CD86 on treated immature LCs/DDCs, flow cytometry; format: cell-based, human; conditions: for RESIDUAL EXPRESSION OF CD86: protein, untreated control = 100%; for LEVEL OF IMMUNOREPRESSION: inversely proportional to residual CD86 protein expression, closer to 1 = stronger
Description: The study of the immunorepressive properties of the cosmetic active principles by flow cytometry proceeds in the following manner:
(§1) 1/ The immature LCs/DDCs are generated as described in Example 1 and step 3.
2/ The cells are inoculated in P24-well plates, at a rate of 400 000 cells per cm^2, and in the culture medium described in Example 3.
4/ The cells are then incubated for 30 minutes with an anti-CD86 monoclonal antibody coupled to a fluorochrome, such as phycoerythrin (advantageously 10 μl of anti-CD86 antibody/well). The negative marking control corresponds to the IgG1 control isotype. After this marking step, the cells are rinsed with the said marking buffer, and then analysed by flow cytometry.
The level of immunorepression, which is inversely proportional to the residual expression of CD86, was also calculated.

[2] = tested on: messenger RNAs coding for CD86 in immature LCs/DDCs; assay: Expression of messenger RNAs coding for CD86 in treated immature LCs/DDCs, quantitative RT-PCR; format: cell-based, human; conditions: 10^-7M, 24 hour treatment; for RESIDUAL EXPRESSION OF CD86: messenger RNA relative to actin, untreated control = 100%; for LEVEL OF IMMUNOREPRESSION: from CD86 messenger RNA, closer to 1 = stronger
Source text: Quantitative RT-PCR makes it possible to quantify the expression of the messenger RNAs coding for the protein CD86 in the LCs/DDCs treated or not treated with the said active agents.
The study of the immunorepressive properties of the cosmetic active principles by quantitative RT-PCR proceeds in the following manner:
as §1
(§2) 2/ The cells are inoculated in P24-well plates, at a rate of 400 000 cells per cm^2, and in the culture medium described in Example 3. The treatment of the cells with the active principles is described in Example 3.
3/ After treatment with the active principles, the cells are recovered and stored, for example by dry-freezing at −80° C. after rinsing with pH 7.4 phosphate buffer.
4/ The total RNA of the cells is extracted, for example using a 96-well extraction kit on silica columns, and assayed on e96-well spectrophotometer at 260 nm (purity indicator: assay of the proteins at 280 nm). The RNAs are diluted, for example, to 5 ng/μl.
5/ The […] RT-PCR in step 1 is performed, for example, on 50 ng of initial RNA on a 96-well plate, on the genes for actin and for the molecule CD86. The specific primers for each gene are specified in Table 7 below and are used, for example, at 0.5 μM.
The amplification parameters were advantageously the following: the real-time RT-PCR technique is performed with the Quanti Tect SYBR Green RT-PCR kit (Qiagen, France) on the wells containing the messenger RNA, in an Opticon thermocycler, which performs the amplification cycles. The reverse transcription (RT) is performed for 30 minutes at 50° C., followed by 15 minutes at 95° C. to inhibit the reverse transcriptase, to activate the polymerase and to denature the complementary DNA (cDNA) obtained. 50 cycles of chain polymerization (PCR) are performed (15 seconds at 95° C., 30 seconds at 60° C., 30 seconds at 72° C.). At the end of each cycle, the fluorescence, which is proportional to the number of amplified fragments, is read. The level of expression is defined by the ratio of expression of each gene relative to actin.
The results are expressed in the following manner: the untreated control is referenced at 100% expression of the messenger RNAs coding for the molecule CD86, and the tests are expressed as the level of expression of the messenger RNAs coding for CD86 as a percentage of variation relative to those obtained for the negative control.

[3] = tested on: CD86 on LCs/DDCs stimulated with LPS and TNFα; assay: Response to a danger signal: LCs/DDCs pretreated with active principles, then stimulated with LPS + TNFα without them, CD86 by flow cytometry; format: cell-based, human; conditions: for RESPONSE CAPACITY: capacity for response to a danger signal, proportional to residual CD86 after pretreatment + stimulation (stimulation alone 143%); for RESIDUAL EXPRESSION OF CD86 AFTER PRETREATMENT + STIMULATION: pretreated, then recultured 48 hours without active principle with LPS 50 μg/mL + TNFα 10 μg/mL, untreated unstimulated control = 100%
Source text: As in Example 8, we checked that the LCs/DDCs are capable of responding to a danger signal, for example a bacterial infection, when they have been treated beforehand with the active principles and when they are no longer being treated. To do this, we checked that the LCs/DDCs treated with the said active principles, and then stimulated with LPS and TNFα (in the absence of the active principles), are capable of overexpressing the co-stimulation molecule CD86 after this stimulation.
(§3) The flow cytometry study proceeds in the following manner:
as §1, §2
3/ The cells treated with the active principles are then recultured, without the active principles and in the culture medium described in Example 3, for a further 48 hours. A mixture of LPS (at 50 μg/mL advantageously) and of TNFα (at 10 μg/mL advantageously) is added to the said culture medium. The cells are then analysed by flow cytometry, as described in Example 6, to quantify the residual expression of the molecule CD86 after “pretreatment+stimulation”.
The results are expressed in the following manner: the control not treated with the active agent and not stimulated with LPS and TNFα is referenced at 100% expression of the molecule CD86, and the tests are expressed as the residual expression of the molecule CD86 after “stimulation” and after “pretreatment+stimulation”. We also calculated the level of capacity for response to a danger signal, which is proportional to the residual expression of CD86 after pretreatment+stimulation.

[4] = tested on: CD86 on LCs/DDCs stimulated with LPS and TNFα; assay: Response to a danger signal: LCs/DDCs simultaneously treated with active principles and stimulated with LPS + TNFα, CD86 by flow cytometry; format: cell-based, human; conditions: for RESIDUAL EXPRESSION OF CD86 AFTER TREATMENT: active principle alone, no stimulation; for RESIDUAL EXPRESSION OF CD86 AFTER TREATMENT / RESIDUAL EXPRESSION OF CD86 AFTER TREATMENT + STIMULATION: untreated unstimulated control = 100%; for RESPONSE CAPACITY: capacity for response to a danger signal, proportional to residual CD86 after treatment + stimulation (stimulation alone 143%); for RESIDUAL EXPRESSION OF CD86 AFTER TREATMENT + STIMULATION: simultaneous active principle and LPS 50 μg/mL + TNFα 10 μg/mL
Description: Evaluation of the immunorepressive potential of the active principles also requires a study of the capacity of the LCs/DDCs to respond to a danger signal, for example a bacterial infection, when they are treated with the said active principles. Specifically, we checked that the LCs/DDCs that are simultaneously treated with the active principles and activated by a danger signal are still competent in their function of recognition of danger signals. To do this, we checked that the LDs/DDCs simultaneously treated with the active principles and stimulated with LPS and TNFα are capable of overexpressing the co-stimulation molecule CD86 after this stimulation.
as §3, §1
2/ The cells are inoculated in P24-well plates, at a rate of 400 000 cells per cm^2, and in the culture medium described in Example 3. A mixture of LPS (at 50 μg/mL advantageously) and of TNFα (at 10 μg/mL advantageously) is added to the said culture medium. Simultaneously, the cells are treated with the active principles as described in Example 3.
3/ The cells that have been simultaneously treated with the active principles and stimulated with LPS and TNFα are analysed by flow cytometry, as described in Example 6, to quantify the residual expression of the molecule CD86 after “treatment+stimulation”.
The results are expressed in the following manner: the control not treated with the active agent and not stimulated with LPS+TNFα is referenced at 100% expression of the molecule CD86, and the tests are expressed as the residual expression of the molecule CD86 after “treatment”, after “treatment+stimulation” and “stimulation”. We also calculated the level of capacity for response to a danger signal, which is proportional to the residual expression of CD86 after treatment+stimulation.

[5] = 10^-7M, % viable (7-AAD negative) cells
[6] = 5 × 1^0^-^7M, dose/effect study

Molecule | CYTOTOXIC EFFECT (immature LCs/DDCs; 10^-7M) | CELL VIABILITY (immature LCs/DDCs; [5]) [%] | RESIDUAL EXPRESSION OF CD86 [1, 6] [%] | RESIDUAL EXPRESSION OF CD86 ([1]; 5 × 10^-8M, dose/effect study) [%] | RESIDUAL EXPRESSION OF CD86 ([1]; 10^-6M, dose/effect study) [%] | RESIDUAL EXPRESSION OF CD86 ([1]; 10^-7M, 24 hour treatment) [%] | LEVEL OF IMMUNOREPRESSION ([1]; 10^-7M, 24 hour treatment) | RESIDUAL EXPRESSION OF CD86 [2] [%] | LEVEL OF IMMUNOREPRESSION [2] | RESPONSE CAPACITY [3] | RESIDUAL EXPRESSION OF CD86 AFTER PRETREATMENT + STIMULATION [3] [%] | RESIDUAL EXPRESSION OF CD86 AFTER TREATMENT [4] [%] | RESPONSE CAPACITY [4] | RESIDUAL EXPRESSION OF CD86 AFTER TREATMENT + STIMULATION [4] [%] | CELL VIABILITY (immature LCs/DDCs; 3 μm, positive control) [%] | CYTOTOXIC EFFECT (immature LCs/DDCs; 3 μm, positive control) | RESIDUAL EXPRESSION OF CD86 ([1]; 10^-8M, 24 hour treatment) [%] | LEVEL OF IMMUNOREPRESSION ([1]; 10^-8M, 24 hour treatment)
COc1cc2c(cc1OC)-c1cc3cc(OC)c(OC)cc3c(=O)n1CC2 [8-Oxopseudopalmatine] | NO (The active principles have a cytotoxic effect when the cell viability is less than 75% after treatment with the said active agents) | 94 | 92 | 100 | 85 | 81 | 0.14 | 59 | 0.41 | 0.89 | 127 | 81 | 0.85 | 121 | – | – | – | –
CC[C@@]1(O)C(=O)OCc2c1cc1n(c2=O)Cc2cc3ccccc3nc2-1 [Camptothecin, reference compound] | – | – | – | – | – | – | – | – | – | – | – | – | – | – | 35 | YES (The active principles have a cytotoxic effect when the cell viability is less than 75% after treatment with the said active agents) | – | –
C[C@@H]1C[C@H]2[C@@H]3CCC4=CC(=O)C=C[C@]4(C)[C@@]3(F)[C@@H](O)C[C@]2(C)[C@@]1(O)C(=O)CO [Dexamethasone, reference compound] | – | – | – | – | – | – | – | – | – | 0.91 | 130 | 50 | 0.52 | 75 | – | – | 50 | 0.5
O=C1C=C2C=C[C@@H]3C[C@@]2(O1)[C@H]1CCCCN31 [Securinine] | NO (The active principles have a cytotoxic effect when the cell viability is less than 75% after treatment with the said active agents) | 94 | 100 | 90 | 100 | 83 | 0.10 | 74 | 0.26 | 0.88 | 126 | 83 | 0.98 | 140 | – | – | – | –
Foliosidine acetonide | NO (The active principles have a cytotoxic effect when the cell viability is less than 75% after treatment with the said active agents) | >95 | 80 | 85 | 83 | 85 | 0.17 | 91 | 0.09 | 0.84 | 120 | 85 | 0.81 | 116 | – | – | – | –
